Laboratory results as given in patent US20250352482A1, “AMORPHOUS DOSAGE FORM CONTAINING EBSELEN” (SOUND PHARMACEUTICALS INC., priority 2022, published 2025).

Conditions: minipig, in vivo
Experimental: Method: The purpose of this study was to determine the pharmacokinetics of ebselen and its metabolites in male and female bama mini-pigs following twice daily (BID) oral administration of two test formulations, control ebselen capsules (Formulation 1) and ebselen-ASD/HME capsules (Formulation 2) at 200 mg/animal for 2.5 days. Three male and three female naïve Bama mini-pigs were assigned to this study. In phase 1, animals received five oral doses (BID on day 1, BID on day 2 and QD on day 3) of Formulation 1: each dose comprised control ebselen capsules (1 (Ebselen capsule, 200 mg+3 placebo capsules). After one week wash out period, the same animals received five oral doses (BID on day 1, BID on day 2 and QD on day 3) of Formulation 2: each dose comprised four Ebselen ASD/HME capsules (Formulation 2), 50 mg each. In each phase, there were 12 hour intervals between dosing. Blood samples were collected at 0.5, 1, 2, 3, 4, 6, 8 and 12 hours post the first and fifth dosing. Concentrations of ebselen, and ebselen glucuronide metabolite in plasma samples were determined by LC-MS/MS.

accumulation on systemic exposure to ebselen: No obvious accumulation
SMILES: O=c1c2ccccc2[se]n1-c1ccccc1 [ebselen, 2-Phenyl-1,2-benzoselenazol-3 (2H)-one]
